Patent US8124793B2, “Derivatives of ethylene methanedisulfonate as cancer chemotherapeutic agents” (priority 2007, dated 2012)

Columns and labels:
Assay type in all cases: cell-based
IGROVI = test: NCI screen, growth of human tumor cells: Ovarian Cancer IGROVI; details: IGROVI
Procedure, shortened: (§1)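 Percent-growth read-out from the NCI cancer cell screen; data annotated by cancer type and molar concentration, ≥60 points per compound.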

SNB-19 = test: NCI screen, growth of human tumor cells: CNS Cancer SNB-19
Procedure, shortened: as §1

ACHN = test: NCI screen, growth of human tumor cells: Renal Cancer ACHN; details: ACHN
Procedure, shortened: as §1

OVCAR-3 = test: NCI screen, growth of human tumor cells: Ovarian Cancer OVCAR-3; details: OVCAR-3, 10^−4 molar
Procedure, shortened: as §1

OVCAR-8 = test: NCI screen, growth of human tumor cells: Ovarian Cancer OVCAR-8; details: OVCAR-8, 10^−4 molar
Procedure, shortened: as §1

CCRF-CEM = test: NCI screen, growth of human tumor cells: Leukemia CCRF-CEM; details: CCRF-CEM
Procedure, shortened: as §1

TK-10 = test: NCI screen, growth of human tumor cells: Renal Cancer TK-10
Procedure, shortened: as §1

NCI-H23 = test: NCI screen, growth of human tumor cells: Non-Small Cell Lung NCI-H23
Procedure, shortened: as §1

HCT-116 = test: NCI screen, growth of human tumor cells: Colon Cancer HCT-116; details: HCT-116, 10^−4 molar
Procedure, shortened: as §1

HOP-92 = test: NCI screen, growth of human tumor cells: Non-Small Cell Lung HOP-92
Procedure, shortened: as §1

UO-31 = test: NCI screen, growth of human tumor cells: Renal Cancer UO-31; details: UO-31, 10^−4 molar
Procedure, shortened: as §1

HT29 = test: NCI screen, growth of human tumor cells: Colon Cancer HT29; details: HT29 (Colon Cancer), 10^−4 molar
Procedure, shortened: as §1

SF-268 = test: NCI screen, growth of human tumor cells: CNS Cancer SF-268
Procedure, shortened: as §1

SNB-75 = test: NCI screen, growth of human tumor cells: CNS Cancer SNB-75
Procedure, shortened: as §1

MCF 7 = test: NCI screen, growth of human tumor cells: Breast Cancer MCF 7
Procedure, shortened: as §1

OVCAR-4 = test: NCI screen, growth of human tumor cells: Ovarian Cancer OVCAR-4; details: OVCAR-4, 10^−4 molar
Procedure, shortened: as §1

UACC-257 = test: NCI screen, growth of human tumor cells: Melanoma UACC-257; details: UACC-257, 10^−4 molar
Procedure, shortened: as §1

K562 = test: NCI screen, growth of human tumor cells: Leukemia K562; details: K562, 10^−4 molar
Procedure, shortened: as §1

AS49/ATCC = test: NCI screen, growth of human tumor cells: Non-Small Cell Lung AS49/ATCC; details: A549/ATCC, 10^−4 molar
Procedure, shortened: as §1

MALME-3M = test: NCI screen, growth of human tumor cells: Melanoma MALME-3M; details: MALME-3M
Procedure, shortened: as §1

CAKI-1 = test: NCI screen, growth of human tumor cells: Renal Cancer CAKI-1; details: CAKI-1 (Renal Cancer), 10^−4 molar
Procedure, shortened: as §1

PC-3 = test: NCI screen, growth of human tumor cells: Prostate Cancer PC-3
Procedure, shortened: as §1

BT-549 = test: NCI screen, growth of human tumor cells: Breast Cancer BT-549; details: BT-549, 10^−4 molar
Procedure, shortened: as §1

SR = test: NCI screen, growth of human tumor cells: Leukemia SR; details: SR
Procedure, shortened: as §1

MCF7/ADR-RES = test: NCI screen, growth of human tumor cells: Breast Cancer MCF7/ADR-RES; details: MCF7/ADR-RES (Breast Cancer), 10^−4 molar
Procedure, shortened: as §1

SF-295 = test: NCI screen, growth of human tumor cells: CNS Cancer SF-295
Procedure, shortened: as §1

SK-MEL-28 = test: NCI screen, growth of human tumor cells: Melanoma SK-MEL-28
Procedure, shortened: as §1

NCI-H322M = test: NCI screen, growth of human tumor cells: Non-Small Cell Lung NCI-H322M; details: NCI-H322M, 10^−4 molar
Procedure, shortened: as §1

U-251 = test: NCI screen, growth of human tumor cells: CNS Cancer U-251
Procedure, shortened: as §1

SK-MEL-5 = test: NCI screen, growth of human tumor cells: Melanoma SK-MEL-5
Procedure, shortened: as §1

OVCAR-5 = test: NCI screen, growth of human tumor cells: Ovarian Cancer OVCAR-5
Procedure, shortened: as §1

HCC-2998 = test: NCI screen, growth of human tumor cells: HCC-2998 (listed under Non-Small Cell Lung)
Procedure, shortened: as §1

LOXIMVI = test: NCI screen, growth of human tumor cells: Melanoma LOXIMVI; details: LOXIMVI
Procedure, shortened: as §1

786-0 = test: NCI screen, growth of human tumor cells: Renal Cancer 786-0
Procedure, shortened: as §1

HOP-62 = test: NCI screen, growth of human tumor cells: Non-Small Cell Lung HOP-62
Procedure, shortened: as §1

SN12C = test: NCI screen, growth of human tumor cells: Renal Cancer SN12C; details: SN12C, 10^−4 molar
Procedure, shortened: as §1

NCI-H226 = test: NCI screen, growth of human tumor cells: Non-Small Cell Lung NCI-H226
Procedure, shortened: as §1

DU-145 = test: NCI screen, growth of human tumor cells: Prostate Cancer DU-145; details: DV-145, 10^−4 molar
Procedure, shortened: as §1

Compound: CC(=O)C1(CC2=C(C)C(=O)c3ccccc3C2=O)S(=O)(=O)OCCOS1(=O)=O [NSC 701690]
- % Growth (IGROVI; 10^−4 molar): −100%
- % Growth (IGROVI; 10^−5 molar): 40%
- % Growth (IGROVI; 10^−6 molar): 60%
- % Growth (SNB-19; SNB-19, 10^−4 molar): −47%
- % Growth (SNB-19; SNB-19, 10^−5 molar): 53%
- % Growth (ACHN; 10^−4 molar): −77%
- % Growth (OVCAR-3): −73%
- % Growth (OVCAR-8): −100%
- % Growth (CCRF-CEM; 10^−4 molar): −73%
- % Growth (CCRF-CEM; 10^−5 molar): 55%
- percent of growth of human tumor cells (TK-10; TK-10 (Renal Cancer), 10^−4 molar): −8%
- % Growth (NCI-H23; NCI-H23, 10^−4 molar): −91%
- % Growth (HCT-116): −100%
- % Growth (HOP-92; HOP-92, 10^−4 molar): −66%
- % Growth (HOP-92; HOP-92, 10^−5 molar): 23%
- % Growth (HOP-92; HOP-92, 10^−6 molar): 60%
- % Growth (UO-31): −92%
- percent of growth of human tumor cells (HT29): −25%
- % Growth (SF-268; SF-268, 10^−4 molar): −100%
- % Growth (SF-268; SF-268, 10^−5 molar): 40%
- % Growth (SF-268; SF-268, 10^−6 molar): 65%
- % Growth (SNB-75; SNB-75, 10^−4 molar): −100%
- % Growth (SNB-75; SNB-75, 10^−5 molar): 45%
- % Growth (MCF 7; MCF7, 10^−4 molar): −100%
- % Growth (OVCAR-4): −100%
- % Growth (UACC-257): −83%
- % Growth (K562): −66%
- % Growth (AS49/ATCC): −97%
- % Growth (MALME-3M; 10^−4 molar): −100%
- % Growth (MALME-3M; 10^−5 molar): 38%
- % Growth (MALME-3M; 10^−6 molar): 43%
- percent of growth of human tumor cells (CAKI-1): −53%
- % Growth (PC-3; PC-3, 10^−4 molar): −38%
- % Growth (PC-3; PC-3, 10^−5 molar): 52%
- % Growth (PC-3; PC-3, 10^−6 molar): 59%
- % Growth (PC-3; PC-3, 10^−7 molar): 28%
- % Growth (PC-3; PC-3, 10^−8 molar): 28%
- % Growth (BT-549): −100%
- % Growth (SR; 10^−4 molar): −100%
- % Growth (SR; 10^−5 molar): −8%
- % Growth (SR; 10^−6 molar): 19%
- percent of growth of human tumor cells (MCF7/ADR-RES): −40%
- % Growth (SF-295; SF-295, 10^−4 molar): −100%
- % Growth (SK-MEL-28; SK-MEL-28, 10^−4 molar): −100%
- % Growth (SK-MEL-28; SK-MEL-28, 10^−5 molar): 58%
- % Growth (NCI-H322M): −100%
- % Growth (U-251; U251, 10^−4 molar): −100%
- % Growth (U-251; U251, 10^−5 molar): 42%
- % Growth (U-251; U251, 10^−6 molar): 53%
- % Growth (U-251; U251, 10^−7 molar): 46%
- % Growth (U-251; U251, 10^−8 molar): 62%
- % Growth (SK-MEL-5; SK-MEL-5, 10^−4 molar): −100%
- % Growth (SK-MEL-5; SK-MEL-5, 10^−5 molar): 58%
- percent of growth of human tumor cells (OVCAR-5; OVCAR-5 (Ovarian Cancer), 10^−4 molar): −53%
- % Growth (HCC-2998; HCC-2998, 10^−4 molar): −100%
- % Growth (LOXIMVI; 10^−4 molar): −100%
- % Growth (LOXIMVI; 10^−5 molar): 36%
- % Growth (786-0; 786-0, 10^−4 molar): −100%
- % Growth (786-0; 786-0, 10^−5 molar): 36%
- % Growth (HOP-62; HOP-62, 10^−4 molar): −92%
- % Growth (HOP-62; HOP-62, 10^−5 molar): 52%
- % Growth (SN12C): −100%

Compound: CC1=C(CC2S(=O)(=O)OCCOS2(=O)=O)C(=O)c2ccccc2C1=O [NSC 693874, ethylene (3-methyl-1,4-naphtho-2-quinoyl)-1,1-ethanedisulfonate]
- % Growth (IGROVI; 10^−4 molar): −100%
- % Growth (IGROVI; 10^−5 molar): 52%
- % Growth (SNB-19; SNB-19, 10^−4 molar): −92%
- % Growth (ACHN; 10^−4 molar): −100%
- % Growth (ACHN; 10^−5 molar): 50%
- % Growth (OVCAR-3): −100%
- % Growth (OVCAR-8): −71%
- % Growth (CCRF-CEM; 10^−4 molar): −49%
- % Growth (CCRF-CEM; 10^−5 molar): 28%
- % Growth (NCI-H226; NCI-H226, 10^−4 molar): −82%
- % Growth (NCI-H226; NCI-H226, 10^−5 molar): 48%
- % Growth (TK-10; TK-10, 10^−4 molar): −100%
- % Growth (NCI-H23; NCI-H23, 10^−4 molar): −89%
- % Growth (NCI-H23; NCI-H23, 10^−5 molar): 62%
- % Growth (HOP-92; HOP-92, 10^−4 molar): −88%
- % Growth (UO-31): −97%
- % Growth (SF-268; SF-268, 10^−4 molar): 10%
- % Growth (SF-268; SF-268, 10^−5 molar): 49%
- % Growth (SNB-75; SNB-75, 10^−4 molar): −96%
- % Growth (SNB-75; SNB-75, 10^−5 molar): −21%
- % Growth (SNB-75; SNB-75, 10^−6 molar): 6%
- % Growth (SNB-75; SNB-75, 10^−7 molar): 27%
- % Growth (SNB-75; SNB-75, 10^−8 molar): 6%
- % Growth (MCF 7; MCF7, 10^−4 molar): −83%
- % Growth (MCF 7; MCF7, 10^−5 molar): 56%
- % Growth (OVCAR-4): −89%
- % Growth (UACC-257): −100%
- % Growth (AS49/ATCC): −93%
- % Growth (MALME-3M; 10^−4 molar): −78%
- % Growth (PC-3; PC-3, 10^−4 molar): −80%
- % Growth (BT-549): −100%
- % Growth (SR; 10^−4 molar): −45%
- % Growth (SR; 10^−5 molar): −15%
- % Growth (SR; 10^−6 molar): 9%
- % Growth (SR; 10^−7 molar): 48%
- % Growth (SR; 10^−8 molar): 79%
- percent of growth of human tumor cells (MCF7/ADR-RES): −41%
- % Growth (SF-295; SF-295, 10^−4 molar): −100%
- % Growth (SF-295; SF-295, 10^−5 molar): 32%
- % Growth (SK-MEL-28; SK-MEL-28, 10^−4 molar): −83%
- % Growth (NCI-H322M): −100%
- % Growth (U-251; U251, 10^−4 molar): −25%
- % Growth (U-251; U251, 10^−5 molar): 57%
- % Growth (SK-MEL-5; SK-MEL-5, 10^−4 molar): −100%
- % Growth (OVCAR-5; OVCAR-5, 10^−4 molar): −98%
- % Growth (HCC-2998; HCC-2998, 10^−4 molar): −100%
- % Growth (HCC-2998; HCC-2998, 10^−5 molar): 50%
- % Growth (LOXIMVI; 10^−4 molar): −95%
- % Growth (LOXIMVI; 10^−5 molar): 35%
- percent of growth of human tumor cells (786-0; 786-0 (Renal Cancer), 10^−4 molar): −16%
- % Growth (HOP-62; HOP-62, 10^−4 molar): −94%
- % Growth (DU-145): −94%
- % Growth (SN12C): −100%
